Entries after “also recorded” stand apart in the source; their conditions may differ.
Columns and labels:
[1] = Pharmacokinetics in mice, subcutaneous vs intravenous; settings: mouse, in vivo
Protocol: The nonclinical pharmacokinetics (PK) of subcutaneously, intravenously, or intratumorally administered Compound A was investigated in mice at the doses of 0.1 and/or 0.5 mg/kg.

[2] = Protein binding in vitro; format: in vitro ADME; settings: human
[3] = Toxicological studies in the rat; format: in vivo
From the text: The toxicological evaluations of Compound A included studies in the rat and cynomolgus monkey (non-human primate [NHP]) and should be relevant to assessing potential human risk, as the STING pathway, the target of Compound A, is conserved across species.
The non-good laboratory practice (GLP) studies in the rat and NHP covered a broad range of doses and regimens. The objective of these studies was to evaluate the effects of Compound A following multiple ascending doses, single doses, and multiple doses.

[4] = tested on: IFNβ and other cytokines; experiment: Cytokine production induced in mice; format: in vivo, C57BL/6 mice
Protocol: The pharmacokinetic/pharmacodynamic properties of Compound A were evaluated in C57BL/6 mice following dosing by subcutaneous, intramuscular, or intravenous routes of administration. Blood was collected post-dosing for the measurement of Compound A and cytokine levels in plasma.

[5] = tested on: MC38 (colon); experiment: MC38 syngeneic tumor model; format: in vivo, mouse
[6] = tested on: 4T1 (breast cancer); experiment: 4T1 PD-L1 antibody-resistant tumor model; format: in vivo, BALB/c mice
Protocol: (§1) Compound A was evaluated alone and in combination with 200 µg of the PD-L1 antibody used in Example 6 in immune checkpoint blockade-resistant tumors. In these studies, mice were implanted with LL2 (lung cancer), 4T1 (breast cancer), AG104Ld (fibrosarcoma), and AG104A (fibrosarcoma) tumors. Following implantation, the animals were dosed intratumorally or subcutaneously with 0.5 mg/kg of Compound A alone or in combination with the PD-L1 antibody, as shown in the table below: […]

[7] = tested on: LL2 (lung cancer); experiment: LL2 PD-L1 antibody-resistant tumor model; format: in vivo, C57BL/6 mice
Protocol: as §1

[8] = tested on: AG104A (fibrosarcoma); experiment: AG104A PD-L1 antibody-resistant tumor model; format: in vivo, B6C3F1 mice; settings: Compound A 0.5 mg/kg SC, days 4, 7, 10, 14, 17, 21; PD-L1 antibody 200 µg
Protocol: as §1

[9] = tested on: AG104Ld (fibrosarcoma); experiment: AG104LD PD-L1 antibody-resistant tumor model; format: in vivo, B6C3F1 mice; settings: Compound A 0.5 mg/kg SC, days 4, 7, 11, 14, 18, 21; PD-L1 antibody 200 µg
Protocol: as §1

[10] = tested on: B16 melanoma; experiment: Abscopal effect, B16 melanoma bilateral tumor model; format: in vivo, mice; settings: intratumoral into primary tumor, 0.15 and 0.5 mg/kg
Protocol: An abscopal effect is an immune-mediated phenomenon wherein direct treatment of a primary tumor can lead to a response in a distant tumor. The potential abscopal effect of Compound A was evaluated in B16 melanoma and AG104A fibrosarcoma tumor models evaluating mice bearing tumors on both right flank (primary tumor) and left flank (secondary tumor). In both models, Compound A was administered intratumorally into the primary tumor on days 5, 8, 11 and 15 after tumor inoculation. The secondary tumor was not treated.

[11] = tested on: syngeneic tumors; experiment: Combination with PD-L1 antibody in multiple syngeneic tumor models; format: in vivo, mouse; settings: tumors otherwise refractory to immune checkpoint inhibitors
From the text: Several of these studies are described in the examples below.

What does the source list for `Nc1nc2c(ncn2[C@@H]2O[C@@H]3COP(=O)(O)OC4C(O)[C@H](n5cnc6c(N)ncnc65)O[C@@H]4COP(=O)(O)OC2C3OCC(F)(F)F)c(=O)[nH]1` (stereo partly shown) [Compound A]?
bioavailability ([1]; sc, subcutaneous 0.5 mg/kg, male mice, subcutaneous AUC0-t vs intravenous AUC0-t, read-out: bioavailability (F)): 121%; clearance ([1]; mice, systemic compartment, read-out: clearance (CL) (converted)): 16.8 mL/min/kg; half-life ([1]; mice, read-out: t½): ~15 min; Vd ([1]; mice, read-out: volume of distribution (Vss)): 0.255 L/kg; fraction unbound [2]: 0.511; mortality ([3]; 3.0 mg/kg dose level): Mortality was also seen; mortality ([3]; GLP rat study, high doses group 10 and 30 mg/kg): Mortality was seen; moribundity and death ([3]; mid and high dose levels, rat study): Moribundity and death was seen; toxicokinetic findings ([3]; rat and NHP toxicology studies, multiple dose): no sex related differences, dose proportionality, and no accumulation; cause of deaths ([3]; rat, highest dose levels): pulmonary edema; cytokine induction ([4]; 0.50 mg/kg): very low levels of cytokines; IFNβ in blood ([4]; 3 hours post dosing): High levels of IFNβ; IFNβ levels in blood ([4]; 12 hours post dosing): near the BLOQ; cytokine induction ([4]; dose levels that showed significant antitumor efficacy): only induced low levels of cytokine; time at which cytokine production was seen ([4]; following administration): 3 to 6 h; time to decrease of cytokines to BLOQ ([4]; following administration): ≤ 12 h; induction of IFNβ and other cytokines ([4]; subcutaneous 0, 0.15, 0.50, 1.50, 5, 15, 50 mg/kg, 3 and 6 hours post injection): dose-dependent induction of IFNβ; tumor growth inhibition ([5]; intratumoral): highly effective in inhibiting tumor growth; anti-tumor efficacy ([5]; subcutaneous): also effective; efficacy (tumor growth and survival) ([6]; Compound A 0.5 mg/kg IT, days 5, 8, 11, 15, PD-L1 antibody 200 µg): suppressed tumor growth and prolonged mouth survival; tumor growth inhibition ([6]; intratumoral): highly effective in inhibiting tumor growth; efficacy (tumor growth and survival) ([7]; Compound A 0.5 mg/kg IT, days 5, 10, 14, 17, PD-L1 antibody 200 µg): suppressed tumor growth and prolonged mouth survival; tumor growth inhibition ([7]; intratumoral): highly effective in inhibiting tumor growth; efficacy (tumor growth and survival) [8]: suppressed tumor growth and prolonged mouth survival; efficacy (tumor growth and survival) [9]: suppressed tumor growth and prolonged mouth survival; survival [10]: survival was significantly prolonged; tumor growth/volume, primary and distant tumors ([10]; days 5, 8, 11, 15): tumor growth was suppressed in both primary and distant tumors; also recorded: significantly decreased; responsiveness to PD-L1 antibody [11]: restored responsiveness to PD-L1 antibody

Reference: patent US20230270773A1, “METHODS OF TREATING CANCER WITH A STING AGONIST” (Immunesensor Therapeutics, Inc., priority 2019, published 2023)
